Laboratory results reported in patent US12421254B2, “KRAS modulators and uses thereof” (Quanta Therapeutics, Inc., priority 2023, dated 2025).

Experiments:
[1] = system: phospho-ERK in SW620 (KRAS-G12V) cells; assay: pERK In Cell Western (ICW) assay (Method B), SW620; assay type: cell-based
Summary of the method: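 Read-out is In-Cell Western phospho-ERK signal divided by DRAQ5 per well, as percent of blank control, fitted with a 4-parameter variable-slope model for IC50. Compounds were dosed as 9-point half-log series for 3 h at 37°C on AGS, GP2D (G12D) or SW620 (G12V) cells plated the day before.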

[2] = system: phospho-ERK in GP2D (KRAS-G12D) cells; assay: pERK In Cell Western (ICW) assay (Method B), GP2D; assay type: cell-based
Procedure: pERK ICW is a high throughput screening assay to evaluate the cellular potency of mutant KRAS small molecule inhibitors. KRAS mutant cell lines AGS, GP2D (KRAS-G12D) as well as SW620 (KRAS-G12V) were purchased from ATCC and maintained respectively in RPMI/DMEM/RPMI medium supplemented with 10% fetal bovine serum.
Cells grown in exponential phase were trypsinized, resuspended in fresh media, and viable cells were counted using a cell counter with Trypan Blue (BioRad TC20). Cells were seeded into 384-well plate (Greiner 781091) at density of 5,000 cells/well for AGS and 10,000 cells/well for GP2D/SW620 and allowed to grow overnight in a 37° C. CO2 incubator. The next day, compounds were dispensed into wells with a ½ log, 9-point serial dilution using a Tecan D300e dispenser and incubated for 3 hours in a 37° C. CO2 incubator. Cells were then fixed with paraformaldehyde (Electron Microscopy Sciences, 15710, 4% final concentration) for 30 min, permeabilized with wash buffer (1×PBS+0.1% Triton X-100) for 30 min and blocked with Odyssey blocking buffer (Li—COR 927-70001) for 1 hour, all at room temperature (RT). Phospho-ERK antibody (CST 4370L) was diluted 1:500 in Odyssey T20 (PBS) antibody diluent (Li—COR 927-75001) and incubated with cells overnight at 4° C. The next day, plates were washed 5× with wash buffer, incubated with IRDye 800 CW, Goat anti-Rabbit secondary antibody (Li—COR 926-32211, 1:800) and DRAQ5 (CST 4084L, 1:5,000) diluted in Odyssey T20 (PBS) antibody diluent for 1 hour, washed 5×, and imaged on an Odyssey CLx imaging system.
For data analysis, signal intensities from 800 (phosphor-ERK) and 700 (DRAQ5) channels were extracted, and phospho-ERK signals were normalized to DRAQ5 signals for each well and percent of blank control values were computed. Data were then imported into Graphpad Prism to compute half-maximal inhibitory concentrations (IC50) using a 4-parameter variable slope model. Z-factor for each plate was computed from signals derived from wells treated with either DMSO or 5 μM of control compound. AGS pERK ICW (Method B) IC50 (uM) values of selected compounds are depicted in Table 2 with compounds having a value ≥0.001 uM to 0.01 uM as ++++; ≥0.01 uM to 0.1 uM as +++; ≥0.1 uM to 1 uM as ++; ≥1 uM to 10 uM as + and ≥10 uM as NA.

[3] = biological target: GST-tagged KRAS-G12D (2-169) (Homo sapiens, UniProt P01116, G12D); assay: Nucleotide exchange assay (NEA), SOS-mediated, HTRF, KRAS G12D; assay type: biochemical; conditions: Table 4; IC50 extracted at 30 min; 20 nM SOScat; read-out: NEA G12D IC50
Summary of the method: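 SOS1cat-driven loading of fluorescent GTP-DY-647P1 (150 nM) onto GST-KRAS-G12D (2-169, 0.25 nM) read by time-resolved FRET; SOScat 20 nM, compound preincubated with KRAS 1 h at RT. Signal blanked to no-SOS reactions, normalized to DMSO; IC50 fitted from the 30-min read.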

[4] = biological target: GST-tagged KRAS-G12V (2-169) (Homo sapiens, UniProt P01116, G12V); assay: Nucleotide exchange assay (NEA), SOS-mediated, HTRF, KRAS G12V; assay type: biochemical; conditions: Table 4; IC50 extracted at 90 min; 80 nM SOS
Summary of the method: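 Exchange onto fluorescent GTP-DY-647P1 (150 nM final) catalysed by 80 nM SOS1cat was followed by Tb-anti-GST HTRF at RT for up to 90 min, after 1 h compound pre-incubation with 0.25 nM GST-tagged KRAS-G12V (2-169), pH 7.3. DMSO = 0%, no-SOS blank = 100%; 4-parameter IC50 taken at 90 min.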

[5] = Homo sapiens, SW-620, 3 h, Table 4

Chain of GST-tagged KRAS-G12V (2-169) (P01116 2-169 isoform P01116-2 G12V): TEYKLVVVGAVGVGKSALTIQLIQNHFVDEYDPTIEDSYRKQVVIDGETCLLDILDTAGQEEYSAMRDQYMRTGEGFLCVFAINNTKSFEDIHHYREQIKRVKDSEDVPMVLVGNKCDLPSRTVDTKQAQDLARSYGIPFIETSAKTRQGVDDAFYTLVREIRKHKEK
Chain of GST-tagged KRAS-G12D (2-169) (P01116 2-169 isoform P01116-2 G12D): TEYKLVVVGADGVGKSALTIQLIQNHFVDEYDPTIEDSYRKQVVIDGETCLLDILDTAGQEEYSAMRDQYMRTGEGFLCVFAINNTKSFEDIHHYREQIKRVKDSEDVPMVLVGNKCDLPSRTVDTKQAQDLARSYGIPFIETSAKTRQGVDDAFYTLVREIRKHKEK

SMILES | IC50 [1, 5] | IC50 ([2]; GP2d, 3 h, Table 4) | IC50 [3] | IC50 [4] | IC50 ([1]; Table 4, 3 hours) | IC50 ([2]; Table 4, 3 hours)
CC(c1cccnc1N)N(C)c1nc(OC[C@@]23CCCN2C[C@H](F)C3)nc(N2CC3(C2)SCc2sc(N)c(C#N)c23)n1 (single isomer, unassigned) [Compound 120A, 2-amino-1′-[4-[[(1*)-1-(2-amino-3-pyridyl)ethyl]-methyl-amino]-6-[[(2R,8S)-2-fluoro-1,2,3,5,6,7-hexahydropyrrolizin-8-yl]methoxy]-1,3,5-triazin-2-yl]spiro[6H-thieno[3,4-b]thiophene-4,3′-azetidine]-3-carbonitrile] | < 10 nM | < 10 nM | < 10 nM | < 10 nM |  | 
CC(c1cccnc1N)N(C)c1nc(OC[C@@]23CCCN2C[C@H](F)C3)nc(N2CC3(C2)SCc2sc(N)c(C#N)c23)n1 (single isomer, unassigned) [Compound 120B, 2-amino-1′-[4-[[(1*)-1-(2-amino-3-pyridyl)ethyl]-methyl-amino]-6-[[(2R,8S)-2-fluoro-1,2,3,5,6,7-hexahydropyrrolizin-8-yl]methoxy]-1,3,5-triazin-2-yl]spiro[6H-thieno[3,4-b]thiophene-4,3′-azetidine]-3-carbonitrile] |  |  | < 10 nM | < 10 nM | 10 to 100 nM | 10 to 100 nM
CC(c1cccnc1N)N(CCO)c1nc(OC[C@@]23CCCN2C[C@H](F)C3)nc(N2CC3(CCc4sc(N)c(C#N)c43)C2)n1 (single isomer, unassigned) [Compound 122A, 2-amino-1′-[4-[[(1*)-1-(2-amino-3-pyridyl)ethyl]-(2-hydroxyethyl)amino]-6-[[(2R,8S)-2-fluoro-1,2,3,5,6,7-hexahydropyrrolizin-8-yl]methoxy]-1,3,5-triazin-2-yl]spiro[5,6-dihydrocyclopenta[b]thiophene-4,3′-azetidine]-3-carbonitrile] | 10 to 100 nM | < 10 nM | < 10 nM | < 10 nM |  | 
CC(c1cccnc1N)N(CCO)c1nc(OC[C@@]23CCCN2C[C@H](F)C3)nc(N2CC3(CCc4sc(N)c(C#N)c43)C2)n1 (single isomer, unassigned) [Compound 122B, 2-amino-1′-[4-[[(1*)-1-(2-amino-3-pyridyl)ethyl]-(2-hydroxyethyl)amino]-6-[[(2R,8S)-2-fluoro-1,2,3,5,6,7-hexahydropyrrolizin-8-yl]methoxy]-1,3,5-triazin-2-yl]spiro[5,6-dihydrocyclopenta[b]thiophene-4,3′-azetidine]-3-carbonitrile] |  |  | < 10 nM | < 10 nM | 10 to 100 nM | 10 to 100 nM
CCN(c1nc(OC[C@@]23CCCN2C[C@H](F)C3)nc(N2CC3(C2)SCc2sc(N)c(C#N)c23)n1)C(C)c1nccnc1N (single isomer, unassigned) [Compound 168A, 2-amino-1′-[4-[[(1*)-1-(3-aminopyrazin-2-yl)ethyl]-ethyl-amino]-6-[[(2R,8S)-2-fluoro-1,2,3,5,6,7-hexahydropyrrolizin-8-yl]methoxy]-1,3,5-triazin-2-yl]spiro[6H-thieno[3,4-b]thiophene-4,3′-azetidine]-3-carbonitrile] | < 10 nM |  | < 10 nM | < 10 nM |  | < 10 nM
CCN(c1nc(OC[C@@]23CCCN2C[C@H](F)C3)nc(N2CC3(C2)SCc2sc(N)c(C#N)c23)n1)C(C)c1nccnc1N (single isomer, unassigned) [Compound 168B, 2-amino-1′-[4-[[(1*)-1-(3-aminopyrazin-2-yl)ethyl]-ethyl-amino]-6-[[(2R,8S)-2-fluoro-1,2,3,5,6,7-hexahydropyrrolizin-8-yl]methoxy]-1,3,5-triazin-2-yl]spiro[6H-thieno[3,4-b]thiophene-4,3′-azetidine]-3-carbonitrile] |  |  | 10 to 100 nM | < 10 nM | 10 to 100 nM | 100 to 1000 nM
CC(c1nsnc1N)N(C)c1nc(OC[C@@]23CCCN2C[C@H](F)C3)nc(N2CC3(C2)SCc2sc(N)c(C#N)c23)n1 (single isomer, unassigned) [Compound 184A, 2-amino-1′-[4-[[(1*)-1-(4-amino-1,2,5-thiadiazol-3-yl)ethyl]-methyl-amino]-6-[[(2R,8S)-2-fluoro-1,2,3,5,6,7-hexahydropyrrolizin-8-yl]methoxy]-1,3,5-triazin-2-yl]spiro[6H-thieno[2,3-c]thiophene-4,3′-azetidine]-3-carbonitrile] | < 10 nM | 10 to 100 nM | < 10 nM | < 10 nM |  | 
N#Cc1c(N)sc2c1C1(CC2)CN(c2nc(OC[C@@]34CCCN3C[C@H](F)C4)nc(N3CCc4n[nH]c(N)c4C3)n2)C1 [Compound 35, 2-amino-1′-[4-(3-amino-2,4,6,7-tetrahydropyrazolo[4,3-c]pyridin-5-yl)-6-[[(2R,8S)-2-fluoro-1,2,3,5,6,7-hexahydropyrrolizin-8-yl]methoxy]-1,3,5-triazin-2-yl]spiro[5,6-dihydrocyclopenta[b]thiophene-4,3′-azetidine]-3-carbonitrile] | ≥ 20000 nM | 1000 to 20000 nM | 100 to 1000 nM | 1000 to 20000 nM |  | 
N#Cc1c(N)sc2c1C1(CC2)CN(c2nc(OCC3(C#N)CC3)nc(OCC3(CN4CCOCC4)CC3)n2)C1 [Compound 38, 2-amino-1′-[4-[(1-cyanocyclopropyl)methoxy]-6-[[1-(morpholinomethyl)cyclopropyl]methoxy]-1,3,5-triazin-2-yl]spiro[5,6-dihydrocyclopenta[b]thiophene-4,3′-azetidine]-3-carbonitrile] | 100 to 1000 nM | 1000 to 20000 nM | 10 to 100 nM | < 10 nM |  | 
N#Cc1c(N)sc2c1C1(CCC2)CN(c2nc(OC[C@@]34CCCN3C[C@H](F)C4)nc(N3CCCC(C#N)CC3)n2)C1 (stereo partly drawn) [Compound 39, 2-amino-1′-[4-(4-cyanoazepan-1-yl)-6-[[(2R,8S)-2-fluoro-1,2,3,5,6,7-hexahydropyrrolizin-8-yl]methoxy]-1,3,5-triazin-2-yl]spiro[6,7-dihydro-5H-benzothiophene-4,3′-azetidine]-3-carbonitrile] | 1000 to 20000 nM | 1000 to 20000 nM | 10 to 100 nM | 10 to 100 nM |  | 
N#Cc1c(N)sc2c1C1(CC2)CN(c2nc(OC[C@@]34CCCN3C[C@H](F)C4)nc(N3CCCCC3C(N)=O)n2)C1 (stereo partly drawn) [Compound 40, 1-[4-(2-amino-3-cyano-spiro[5,6-dihydrocyclopenta[b]thiophene-4,3′-azetidine]-1′-yl)-6-[[(2R,8S)-2-fluoro-1,2,3,5,6,7-hexahydropyrrolizin-8-yl]methoxy]-1,3,5-triazin-2-yl]piperidine-2-carboxamide] | ≥ 20000 nM | 1000 to 20000 nM | 100 to 1000 nM | 1000 to 20000 nM |  | 
N#CCC12CC1CCN(c1nc(OC[C@@]34CCCN3C[C@H](F)C4)nc(N3CC4(CCc5sc(N)c(C#N)c54)C3)n1)C2 (stereo partly drawn) [Compound 43, 2-amino-1′-[4-[1-(cyanomethyl)-3-azabicyclo[4.1.0]heptan-3-yl]-6-[[(2R,8S)-2-fluoro-1,2,3,5,6,7-hexahydropyrrolizin-8-yl]methoxy]-1,3,5-triazin-2-yl]spiro[5,6-dihydrocyclopenta[b]thiophene-4,3′-azetidine]-3-carbonitrile] | 1000 to 20000 nM | 1000 to 20000 nM | 10 to 100 nM | 10 to 100 nM |  | 
